{
  "source": "patent US20050222114A1",
  "about": "“Use of new etonogestrel esters” (priority 2002, published 2005)",
  "key": {"[1]": {"experiment": "Solubility in solvents determined visually (appearance)", "type": "physicochemical", "details": "for solubility at two times the desired concentration: all four solvents tested, desired concentration 50 mg/ml etonogestrel-undecanoate, 100 mg/ml MENT-undecanoate", "experimental": "To determine the solubility and viscosity of MENT undecanoate and etonogestrel undecanoate, four different solvents were used: • ethyl undecanoate • ethyl undecanoate+50% benzyl benzoate • arachis oil • arachis oil+50% benzyl benzoate\nUsing these solvents, the following solutions were prepared: • 100 mg/ml etonogestrel undecanoate in the different solvents • 50 mg/ml etonogestrel undecanoate in the different solvents • 200 mg/ml MENT undecanoate in the different solvents • 100 mg/ml MENT undecanoate in the different solvents • 50 mg/ml etonogestrel undecanoate+100 mg/ml MENT undecanoate in the different solvents\nThe two combined solvents were prepared by addition of 50 gram of ethyl undecanoate or arachis oil to 50 gram of benzyl benzoate. […] The arachis oil+50% benzyl benzoate solution was not filtered.\nThe solubility of the compounds in the solvents was determined visually. The viscosity was determined using a Brookfield model DV-III. The density of the solutions was determined using a Mettler Toledo DA-100M density meter."}, "[2]": {"experiment": "Pharmacokinetics of androgen esters after one s.c. injection in castrated rabbits (plasma MENT or testosterone by LC-MSMS)", "type": "in vivo", "details": "castrated rabbit, one s.c. injection 20 mg/kg in arachis oil (100 mg/ml)", "experimental": "With LC-MSMS, the amount of parent compound (testosterone or MENT) was determined in these samples."}, "[3]": {"experiment": "Pharmacokinetics of etonogestrel esters after one i.m. injection in rabbits (plasma etonogestrel by LC-MSMS)", "details": "rabbit; for initial peak level of etonogestrel in plasma: one i.m. injection 20 mg/kg in arachis oil (40 mg/ml)", "method": "(§1) For the determination of the pharmacokinetic profile of the different etonogestrel-esters after parenteral application, i.m. application in the castrated rabbit model was chosen instead of s.c. Briefly, rabbits were injected once (day 1) with indicated etonogestrel-esters at 20 mg/kg in arachis oil (with a concentration of 40 mg/ml). At day 1, 2, 3, 4, 5, 6, 7, 8, 10, 12, 14, 21, 28, 35, 49, 63, 77, 92, 106, 120 and 133 blood was collected from the ear arteria, in EDTA-containing tubes. EDTA plasma was prepared (1500 g, 15 min) and stored at −20° C. With LC-MSMS the amount of parent compound (etonogestrel) was determined in these samples. The lower limit of this new assay is 0.5 nmol/l, from 0-250 nmol/l a linear curve was obtained with a correlation coefficient of 0,9998."}, "[4]": {"details": "rabbit, in vivo, 20 mg/kg", "method": "as §1"}, "[5]": {"details": "hypogonadal men, one IM injection, FIG. 5; cited from earlier work"}, "[6]": {"details": "one i.m. injection 20 mg/kg in arachis oil"}},
  "note": "Read-outs that look alike come from different tables or passages of the source.",
  "data": [
    {"smiles": "CCCCCCCCCCC(=O)O[C@H]1CC[C@H]2[C@H]3[C@H](CC[C@]12C)[C@H]1CCC(=O)C=C1C[C@H]3C", "note": "[MENT-undecanoate]", "values": [
      {"measurement": "heating necessary to dissolve", "setting": "[1]; 200 mg/ml in arachis oil", "value": "approximately 50 °C"},
      {"measurement": "solubility at two times the desired concentration", "setting": "[1]", "value": "could be dissolved at two times the desired concentration"}
    ]},
    {"smiles": "CCCCCCC(=O)O[C@H]1CC[C@H]2[C@@H]3CCC4=CC(=O)CC[C@]4(C)[C@H]3CC[C@]12C", "note": "[Testosterone-enanthate]", "values": [
      {"measurement": "pharmacokinetic profile of released MENT or testosterone (in words)", "setting": "[2]", "value": "high peak of testosterone"}
    ]},
    {"smiles": "C#CC1(OC(=O)CCCCCCCCC)CCC2C3CCC4=CC(=O)CCC4C3C(=C)CC21CC", "note": "(stereo not shown) [etonogestrel decanoate]", "values": [
      {"measurement": "initial peak level of etonogestrel in plasma", "setting": "[3]", "value": 24, "unit": "nmol/L"}
    ]},
    {"smiles": "C#C[C@]1(OC(=O)CCCCCCCCCCC)CC[C@H]2[C@@H]3CCC4=CC(=O)CC[C@@H]4[C@H]3C(=C)C[C@@]21CC", "note": "[etonogestrel dodecanoate]", "values": [
      {"measurement": "initial peak level of etonogestrel in plasma", "setting": "[3]", "value": 9, "unit": "nmol/L"}
    ]},
    {"smiles": "C#C[C@]1(OC(=O)CCCCCC)CC[C@H]2[C@@H]3CCC4=CC(=O)CC[C@@H]4[C@H]3C(=C)C[C@@]21CC", "note": "[etonogestrel heptanoate]", "values": [
      {"measurement": "initial peak level of etonogestrel in plasma", "setting": "[3]", "value": 120, "unit": "nmol/L"}
    ]},
    {"smiles": "C#C[C@]1(OC(=O)CCCCCCCC)CC[C@H]2[C@@H]3CCC4=CC(=O)CC[C@@H]4[C@H]3C(=C)C[C@@]21CC", "note": "[etonogestrel nonanoate]", "values": [
      {"measurement": "pharmacokinetic profile of released etonogestrel (in words)", "setting": "[3]; [6]", "value": "lower peak levels and extended duration with serum levels of etonogestrel above 1 nmol/l"}
    ]},
    {"smiles": "C#C[C@]1(OC(=O)CCCCCCCCCCCC)CC[C@H]2[C@@H]3CCC4=CC(=O)CC[C@@H]4[C@H]3C(=C)C[C@@]21CC", "note": "[etonogestrel tridecanoate]", "values": [
      {"measurement": "pharmacokinetic profile of released etonogestrel (in words)", "setting": "[3]; [6]", "value": "no initial levels of etonogestrel were observed"}
    ]},
    {"smiles": "C#C[C@]1(OC(=O)CCCCCCCCCC)CC[C@H]2[C@@H]3CCC4=CC(=O)CC[C@@H]4[C@H]3C(=C)C[C@@]21CC", "note": "[etonogestrel undecanoate]", "values": [
      {"measurement": "solubility at two times the desired concentration", "setting": "[1]", "value": "could be dissolved at two times the desired concentration"},
      {"measurement": "duration of action: etonogestrel levels above 1 nmol/l", "setting": "[3]; [6]", "value": "more than 92 days"},
      {"measurement": "initial peak level of etonogestrel in plasma", "setting": "[3]", "value": 13, "unit": "nmol/L"}
    ]},
    {"smiles": "C#C[C@]1(O)CC[C@H]2[C@@H]3CCC4=CC(=O)CC[C@@H]4[C@H]3C(=C)C[C@@]21CC", "note": "[etonogestrel, (17α)-13-ethyl-17-hydroxy-11-methylene-18,19-dinorpregn-4-en-20-yn-3-one]", "values": [
      {"measurement": "initial peak level of etonogestrel in plasma", "setting": "[4]", "value": 200, "unit": "nmol/L"}
    ]},
    {"smiles": "CCCCCCCCCCC(=O)O[C@H]1CC[C@H]2[C@@H]3CCC4=CC(=O)CC[C@]4(C)[C@H]3CC[C@]12C", "note": "[testosterone undecanoate]", "values": [
      {"measurement": "pharmacokinetics of serum testosterone in humans (in words)", "setting": "[5]", "value": "low initial release and steady-state levels of long duration"}
    ]}
  ]
}
